# Measured values published in patent publication US6737383B1, “Herbicidal oxadiazolidines” (priority 1999, dated 2004).
# How the values were obtained:
# bedstraw = experiment: Test B pre/postemergence bedstraw; type: in vivo, Galium aparine
# How it was run: (§1)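 Response is a visual 0-to-10 score relative to untreated plants, where 0 means no effect and 10 means complete control, taken twelve to sixteen days after application. Treatments went onto soil at planting and onto foliage of 1- to 4-leaf plants, using a surfactant-containing non-phytotoxic solvent.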
# morningglory = experiment: Test B pre/postemergence morningglory; type: in vivo, Ipomoea hederacea
# How it was run: as §1
# velvetleaf = experiment: Test B pre/postemergence velvetleaf; type: in vivo, Abutilon theophrasti
# How it was run: as §1
# pigweed = experiment: Test B pre/postemergence pigweed; type: in vivo, Amaranthus retroflexus
# How it was run: as §1
# surinam grass = experiment: Test B pre/postemergence surinam grass; type: in vivo, Brachiaria decumbens
# How it was run: as §1
# wild oat = experiment: Test B pre/postemergence wild oat; type: in vivo, Avena fatua
# How it was run: as §1
# wheat = experiment: Test B pre/postemergence wheat; type: in vivo, Triticum aestivum
# How it was run: as §1
# giant foxtail = experiment: Test B pre/postemergence giant foxtail; type: in vivo, Setaria faberii
# How it was run: as §1
# soybean = experiment: Test B pre/postemergence soybean; type: in vivo, Glycine max
# How it was run: as §1
# sugar beet = experiment: Test B pre/postemergence sugar beet; type: in vivo, Beta vulgaris
# How it was run: as §1
# purple nutsedge = experiment: Test B pre/postemergence purple nutsedge; type: in vivo, Cyperus rotundus
# How it was run: as §1
# cocklebur = experiment: Test B pre/postemergence cocklebur; type: in vivo, Xanthium strumarium
# How it was run: as §1
# rape = experiment: Test B pre/postemergence rape; type: in vivo, Brassica napus
# How it was run: as §1
# corn = experiment: Test B pre/postemergence corn; type: in vivo, Zea mays
# How it was run: as §1
# blackgrass = experiment: Test B pre/postemergence blackgrass; type: in vivo, Alopecurus myosuroides
# How it was run: as §1
# crabgrass = experiment: Test B pre/postemergence crabgrass; type: in vivo, Digitaria sanguinalis
# How it was run: as §1
# [1] = Postemergence, Rate 62 g/ha, scale of 0 to 10, 0 is no effect, 10 is complete control
# [2] = Postemergence, Rate 125 g/ha, scale of 0 to 10 where 0 is no effect and 10 is complete control
# [3] = Postemergence, Rate 250 g/ha, scale of 0 to 10, 0 is no effect, 10 is complete control
# [4] = Preemergence, Rate 62 g/ha, scale 0 to 10 (0 no effect, 10 complete control)
# [5] = Preemergence, Rate 500 g/ha, scale of 0 to 10 where 0 is no effect and 10 is complete control
# [6] = Postemergence, Rate 500 g/ha, scale of 0 to 10 where 0 is no effect and 10 is complete control
# [7] = Preemergence, Rate 125 g/ha, scale of 0 to 10 where 0 is no effect and 10 is complete control
# [8] = Preemergence, Rate 250 g/ha, scale 0 to 10 (0 no effect, 10 complete control)
# [9] = Preemergence, Rate 62 g/ha, scale of 0 to 10 where 0 is no effect and 10 is complete control
compound,measurement,setting,value
CC(C)N(C(=O)n1oc(=O)n(CCC(F)(F)F)c1=O)c1ccccc1 [Compound 584],Bedstraw plant response rating,bedstraw; [1],5
same,"Plant response rating, Bedstraw",bedstraw; [2],5
same,Bedstraw plant response rating,bedstraw; [3],9
same,Bedstraw plant response rating,bedstraw; [4],9
same,Bedstraw plant response rating (0 to 10 scale),"bedstraw; Preemergence, Rate 250 g/ha",9
same,Bedstraw plant response rating,bedstraw; [5],9
same,Morningglory plant response rating,morningglory; [1],1
same,"Plant response rating, Morningglory",morningglory; [2],4
same,Morningglory plant response rating,morningglory; [3],5
same,"Plant response rating, Morningglory",morningglory; [6],3
same,Morningglory plant response rating,morningglory; [4],4
same,Morningglory plant response rating,morningglory; [7],4
same,Morningglory plant response rating,morningglory; [5],3
same,"Plant response rating, Velvetleaf",velvetleaf; [2],3
same,Velvetleaf plant response rating,velvetleaf; [3],3
same,"Plant response rating, Velvetleaf",velvetleaf; [6],5
same,Velvetleaf plant response rating,velvetleaf; [4],0
same,Velvetleaf plant response rating,velvetleaf; [7],0
same,Velvetleaf plant response rating,velvetleaf; [5],5
same,"Plant response rating, Redroot pigweed",pigweed; [2],2
same,Redroot pigweed plant response rating,pigweed; [3],2
same,"Plant response rating, Redroot pigweed",pigweed; [6],7
same,Redroot pigweed plant response rating,pigweed; [4],7
same,Redroot pigweed plant response rating,pigweed; [7],8
same,Redroot pigweed plant response rating,pigweed; [5],9
same,B. signalgrass plant response rating,surinam grass; [1],3
same,"Plant response rating, B. signalgrass",surinam grass; [2],3
same,B. signalgrass plant response rating,surinam grass; [3],7
same,"Plant response rating, B. signalgrass",surinam grass; [6],9
same,B. signalgrass plant response rating,surinam grass; [4],7
same,B. signalgrass plant response rating,surinam grass; [7],7
same,B. signalgrass plant response rating,surinam grass; [5],9
same,"Plant response rating, Wild oats",wild oat; [2],0
same,Wild oats plant response rating,wild oat; [3],2
same,"Plant response rating, Wild oats",wild oat; [6],7
same,Wild oats plant response rating,wild oat; [4],0
same,Wild oats plant response rating,wild oat; [7],2
same,Wild oats plant response rating,wild oat; [5],9
same,"Plant response rating, Wheat",wheat; [2],2
same,Wheat plant response rating,wheat; [3],3
same,"Plant response rating, Wheat",wheat; [6],6
same,Wheat plant response rating,wheat; [4],0
same,Wheat plant response rating,wheat; [7],0
same,Wheat plant response rating,wheat; [5],3
same,Giant foxtail plant response rating,giant foxtail; [1],7
same,"Plant response rating, Giant foxtail",giant foxtail; [2],8
same,Giant foxtail plant response rating,giant foxtail; [3],9
same,"Plant response rating, Giant foxtail",giant foxtail; [6],9
same,Giant foxtail plant response rating,giant foxtail; [4],9
same,Giant foxtail plant response rating,giant foxtail; [7],8
same,Giant foxtail plant response rating,giant foxtail; [5],10
same,"Plant response rating, Soybean",soybean; [2],3
same,Soybean plant response rating,soybean; [3],3
same,"Plant response rating, Soybean",soybean; [6],4
same,Soybean plant response rating,soybean; [4],0
same,Soybean plant response rating,soybean; [7],0
same,Soybean plant response rating,soybean; [5],0
same,"Plant response rating, Sugarbeets",sugar beet; [2],2
same,Sugarbeets plant response rating,sugar beet; [3],5
same,"Plant response rating, Sugarbeets",sugar beet; [6],8
same,Sugarbeets plant response rating,sugar beet; [4],0
same,Sugarbeets plant response rating,sugar beet; [7],2
same,Sugarbeets plant response rating,sugar beet; [5],5
same,Nutsedge plant response rating,purple nutsedge; [1],0
same,"Plant response rating, Nutsedge",purple nutsedge; [2],0
same,Nutsedge plant response rating,purple nutsedge; [3],0
same,"Plant response rating, Nutsedge",purple nutsedge; [6],3
same,Nutsedge plant response rating,purple nutsedge; [4],0
same,Nutsedge plant response rating,purple nutsedge; [7],0
same,Nutsedge plant response rating,purple nutsedge; [5],0
same,Cocklebur plant response rating,cocklebur; [1],0
same,"Plant response rating, Cocklebur",cocklebur; [2],2
same,Cocklebur plant response rating,cocklebur; [3],4
same,"Plant response rating, Cocklebur",cocklebur; [6],4
same,Cocklebur plant response rating,cocklebur; [4],0
same,Cocklebur plant response rating,cocklebur; [7],0
same,Cocklebur plant response rating (0 to 10 scale),"cocklebur; Preemergence, Rate 250 g/ha",0
same,Cocklebur plant response rating,cocklebur; [5],0
same,Rape plant response rating,rape; [1],3
same,"Plant response rating, Rape",rape; [2],4
same,Rape plant response rating,rape; [3],9
same,"Plant response rating, Rape",rape; [6],9
same,Rape plant response rating,rape; [4],3
same,Rape plant response rating,rape; [7],4
same,Rape plant response rating,rape; [5],4
same,Corn plant response rating,corn; [1],0
same,"Plant response rating, Corn",corn; [2],2
same,Corn plant response rating,corn; [3],3
same,"Plant response rating, Corn",corn; [6],4
same,Corn plant response rating,corn; [4],0
same,Corn plant response rating,corn; [7],0
same,Corn plant response rating (0 to 10 scale),"corn; Preemergence, Rate 250 g/ha",2
same,Corn plant response rating,corn; [5],3
same,Blackgrass plant response rating,blackgrass; [1],5
same,"Plant response rating, Blackgrass",blackgrass; [2],7
same,Blackgrass plant response rating,blackgrass; [3],7
same,"Plant response rating, Blackgrass",blackgrass; [6],7
same,Blackgrass plant response rating,blackgrass; [4],9
same,Blackgrass plant response rating (0 to 10 scale),"blackgrass; Preemergence, Rate 250 g/ha",8
same,Crabgrass plant response rating,crabgrass; [1],1
same,"Plant response rating, Crabgrass",crabgrass; [2],7
same,Crabgrass plant response rating,crabgrass; [3],6
same,"Plant response rating, Crabgrass",crabgrass; [6],9
same,Crabgrass plant response rating,crabgrass; [4],8
same,Crabgrass plant response rating,crabgrass; [7],8
same,Crabgrass plant response rating,crabgrass; [5],9
CCn1ncc(Cn2c(=O)on(C(=O)N(c3ccc(F)cc3)C(C)C)c2=O)c1Cl [Compound 685],"Plant response rating, Bedstraw",bedstraw; [7],0
same,"Plant response rating, Bedstraw",bedstraw; [8],0
same,"Plant response rating, Bedstraw",bedstraw; [5],0
same,Morningglory plant response rating,morningglory; [9],0
same,"Plant response rating, Morningglory",morningglory; [7],0
same,Velvetleaf plant response rating,velvetleaf; [9],0
same,"Plant response rating, Velvetleaf",velvetleaf; [7],0
same,Redroot pigweed plant response rating,pigweed; [9],0
same,"Plant response rating, Redroot pigweed",pigweed; [7],4
same,B. signalgrass plant response rating,surinam grass; [9],5
same,"Plant response rating, B. signalgrass",surinam grass; [7],7
same,"Plant response rating, B. signalgrass",surinam grass; [8],9
same,"Plant response rating, B. signalgrass",surinam grass; [5],9
same,Wild oats plant response rating,wild oat; [9],0
same,"Plant response rating, Wild oats",wild oat; [7],3
same,Wheat plant response rating,wheat; [9],0
same,"Plant response rating, Wheat",wheat; [7],0
same,Giant foxtail plant response rating,giant foxtail; [9],9
same,"Plant response rating, Giant foxtail",giant foxtail; [7],9
same,Soybean plant response rating,soybean; [9],0
same,"Plant response rating, Soybean",soybean; [7],0
same,Sugarbeets plant response rating,sugar beet; [9],0
same,"Plant response rating, Sugarbeets",sugar beet; [7],0
same,"Plant response rating, Nutsedge",purple nutsedge; [7],0
same,Cocklebur plant response rating,cocklebur; [9],0
same,"Plant response rating, Cocklebur",cocklebur; [7],0
same,"Plant response rating, Cocklebur",cocklebur; [8],0
same,Rape plant response rating,rape; [9],0
same,"Plant response rating, Rape",rape; [7],0
same,Corn plant response rating,corn; [9],0
same,"Plant response rating, Corn",corn; [7],0
same,"Plant response rating, Corn",corn; [8],0
same,Blackgrass plant response rating,blackgrass; [9],5
same,"Plant response rating, Blackgrass",blackgrass; [7],7
same,"Plant response rating, Blackgrass",blackgrass; [8],10
same,"Plant response rating, Blackgrass",blackgrass; [5],10
same,Crabgrass plant response rating,crabgrass; [9],9
same,"Plant response rating, Crabgrass",crabgrass; [7],9
same,"Plant response rating, Crabgrass",crabgrass; [8],9
